Assay results published in patent US20110166196A1, “TREATMENT AND PROPHYLAXIS OF EPILEPSY AND FEBRILE SEIZURES” (priority 2008, published 2011).

What was measured:
[1] = tested on: excitatory synapses onto CA1 hippocampal interneurons; experiment: HFS-induced long-term depression (LTD) of EPSCs, whole-cell recording in hippocampal slices; format: cell-based, rat
Source text: (§1) The basic methods have been detailed previously (McMahon and Kauer, 1997). Sprague-Dawley rats (15-22 days old) were used in the majority of experiments. In addition, we used TRPV1^−/− mice (Caterina et al., 2000) and wild-type C57BL/6 mice aged between 15 and 21 days (Jackson Laboratory). The TRPV1^−/− mice we used have been backcrossed at least 10 times onto a C57BL/6 background and were obtained from homozygous breeding pairs. Control mice were therefore not littermates but were age-matched, wild-type C57BL/6 animals received from the same supplier in the same shipment. All animal protocols were approved by the Brown University Institutional Animal Care and Use Committee. For mouse experiments, only one brain slice per mouse was used for each experiment, so that reported ‘n’ numbers represent the number of animals. Animals were anaesthetized using halothane or isoflurane and quickly decapitated. The brain was rapidly removed and 300 μm thick coronal slices prepared and stored for at least one hour submerged on a net in artificial cerebrospinal fluid (ACSF) containing in mM: 119 NaCl, 26 NaHCO3, 2.5 KCl, 1.0 NaH2PO4, 2.5 CaCl2, 1.3 MgSO4 and 11 dextrose, saturated with 95% O2/5% CO2 (pH 7.4). Slices were then transferred to a submerged recording chamber and bathed in oxygenated ACSF (28-32° C.) containing elevated divalent cations to reduce epileptiform activity (4 mM CaCl2 and 4 mM MgCl2, replacing MgSO4). A surgical cut was made between the CA3 and CA1 regions. The storage of slices submerged on a net rather than in an interface chamber on filter paper may be important in maintaining slice health and improving the likelihood of observing LTD.
(§2) Slices were continuously perfused with ACSF warmed to 28-32° C. at a flow rate of 1-2 ml/min. Picrotoxin (100 μM) and D-AP5 (50 μM) were added to block GABAA receptor- and NMDAR-mediated synaptic transmission. Whole-cell patch clamp recordings were made from interneurons identified visually in the CA1 stratum radiatum of the hippocampus. […] Patch pipettes were filled with internal recording solution containing in mM: 117 cesium gluconate, 2.8 NaCl, 5 MgCl2, 20 HEPES, 2 ATP-Na^+, 0.3 GTP-Na^+ and 0.6 EGTA. In some experiments 2 μM capsazepine, 140 nM baicalein, or 250 μM GDPβS were also included in the intracellular patch pipette solution. In experiments with BAPTA-containing patch electrodes, EGTA was omitted from the intracellular solution and 25 or 40 mM BAPTA replaced a corresponding amount of cesium gluconate. EPSCs were stimulated at 0.1 Hz (100 μsec) using a bipolar stainless steel stimulating electrode placed in stratum radiatum at least 200 μm from the recorded cell. CA1 interneurons were voltage clamped at −65 mV (not corrected for the liquid junction potential, of ˜10 mV), and EPSCs were evoked by paired pulses with an interval of 50 msec (stimulus intensity typically 50-400 μA). In early experiments, we measured rectification ratios of EPSCs evoked at +40 mV/−60 mV in the presence of 50 μM D-AP5, measured at the time of peak inward synaptic current seen at −70 mV (Lei and McBain, 2004).
High-frequency stimulation was used to induce LTD (HFS; two 1 sec trains at 100 Hz, inter-train interval 20 sec, at 1.5 times test current intensity) with the neuron held in current-clamp mode, so that the HFS trains were delivered with the membrane potential free to vary. Receptor antagonists were added directly to the ACSF at known concentrations for at least 10 minutes prior to HFS. Control experiments were interleaved with those experiments using receptor antagonists or involving slices from TRPVl^−/− mice. The cell input resistance and series resistance were monitored throughout each experiment; cells were discarded if these values changed by more than 10% during the experiment.

[2] = tested on: excitatory synapses onto CA1 hippocampal interneurons; experiment: Drug-induced depression of EPSC amplitudes, whole-cell recording in hippocampal slices; format: cell-based, rat
Source text: as §1, §2
The maximal initial slope of fEPSPs was calculated using a LabVIEW-based program (National Instruments). The peak amplitude of each EPSC was measured by comparing a 10 msec time period immediately prior to the stimulus with the peak of the EPSC using this program as well. Occasionally polysynaptic responses were evoked, and in these cases, only the initial monosynaptic event was measured. To positively identify LTD, EPSCs measured every 10 seconds were averaged in 1 minute intervals. EPSC amplitude values were normalized to control pre-HFS EPSC amplitude values (baseline period of at least 5 minutes prior to HFS) and subjected to analysis of variance (ANOVA) repeated measures analysis with a post-hoc Dunnett's test (GraphPad Prism, Version 4).

hippocampal area CA1 = conditions: in vivo treatment of animals after the induction of febrile seizures; cited from earlier work
[3] = tested on: CA1 pyramidal neurons from trpv1−/− mice; experiment: Residual heat-activated current in CA1 pyramidal neurons from trpv1-/- mice; format: cell-based, mouse; conditions: 10 μM ruthenium red bath; trpv1−/− CA1 neurons (34.6±8.4 pA without); n=5

**Q.** Which “cells recorded from with intracellular GDPβS that had LTD” value ([1]; patch pipette solution containing 250 μM GDPβS) does the source give for `Nc1nc2c(ncn2[C@@H]2O[C@H](COP(=O)(O)OP(O)(O)=S)[C@@H](O)[C@H]2O)c(=O)[nH]1` [GDPβS] here?
**A.** Its value is 6 of 10.

**Q.** What about the “EPSC amplitudes 15-20 minutes post-HFS with intracellular GDPβS” value ([1]; patch pipette solution containing 250 μM GDPβS, n=10) of the same compound?
**A.** The value was 88.2±10.6 % of control values before HFS.

**Q.** For `COC(=O)[C@@H](N)CCCNC(=N)N[N+](=O)[O-]` [L-NAME], which “EPSC amplitudes 15-20 minutes post-HFS” value ([1]; 200 μM L-NAME bath applied 10 minutes prior to HFS, n=5) is on record?
**A.** Its value is 46.3±10.4 % of control values before HFS.

**Q.** Which “EPSC amplitudes 15-20 minutes post-HFS” value ([1]; SR141716A 2-5 μM bath-applied, n=10, control LTD 62.0±5.3%) does the source give for `Cc1c(C(=O)NN2CCCCC2)nn(-c2ccc(Cl)cc2Cl)c1-c1ccc(Cl)cc1` [SR141716A] here?
**A.** The value was 110.6±19.3 % of control values before HFS.

**Q.** And the “EPSC amplitudes after 10-15 minutes in capsaicin and in the presence of SR141716A” value ([2]; SR141716A 2 μM pretreatment, capsaicin 1 μM, n=6)?
**A.** The value was 102.8±9.2 % of pre-capsaicin control values.

**Q.** And the “EPSC amplitudes after 10-15 minutes in 12-(S)-HPETE and in the presence of SR141716A” value ([2]; SR141716A 2 μM, 12-(S)-HPETE 100 nM, n=5)?
**A.** Its value is 106.9±5.5 % of pre-12-(S)-HPETE control values.

**Q.** What about the “emergence of long-term limbic hyperexcitability” value (hippocampal area CA1) of the same compound?
**A.** The value was “prevented the emergence of long-term limbic hyperexcitability”.

**Q.** And the “hyperexcitability in hippocampal area CA1” value (hippocampal area CA1)?
**A.** Its value is “reduced hyperexcitability in hippocampal area CA1”.

**Q.** With `Cc1c(C(=O)c2cccc3ccccc23)c2cccc3c2n1[C@H](CN1CCOCC1)CO3` [WIN 55,212-2] as the compound, how does the “EPSC amplitudes 15-20 minutes post-HFS” value ([1]; pre-treatment with WIN 55,212-2 1 μM for at least ten minutes, n=12) read?
**A.** Its value is 51.3±7.5 % of control values in WIN55,212-2 before HFS.

**Q.** What about the “EPSC amplitudes after 10-15 minutes in WIN 55,212-2 alone” value ([2]; WIN 55,212-2 1 μM bath-applied, n=14) of the same compound?
**A.** Its value is 66.1±7.9 % of pre-drug control values.

**Q.** With `O=c1cc(-c2ccccc2)oc2cc(O)c(O)c(O)c12` [baicalein] as the compound, how does the “cells with potentiation (greater than 125% of control 20 minutes following the HFS)” value ([1]; baicalein 500 nM bath-applied) read?
**A.** The value was “four of ten”.

**Q.** What about the “EPSC amplitudes 15-20 minutes post-HFS” value ([1]; baicalein 500 nM bath-applied, n=10) of the same compound?
**A.** The value was 129.6±20.3 % of control values before HFS.

**Q.** And the “cells recorded from with intracellular baicalein that had LTD” value ([1]; patch pipette solution containing 140 nM baicalein)?
**A.** Its value is 4 of 12.

**Q.** And the “EPSC amplitudes 15-20 minutes post-HFS with intracellular baicalein” value ([1]; patch pipette solution containing 140 nM baicalein, n=12)?
**A.** The value was 110.8±15.4 % of control values before HFS.

**Q.** For `N.N.N.N.N.N.N.N.N.N.N.N.N.N.[Cl-].[Cl-].[Cl-].[Cl-].[Cl-].[Cl-].[O-2].[O-2].[Ru+3].[Ru+3].[Ru+4]` [ruthenium red], which “peak heat-evoked inward current in ruthenium red” value [3] is on record?
**A.** Its value is 9.3±7.7 pA.
